Source: patent US20260373094A1, “MICROSTRUCTURE CONTAINING WATER-SOLUBLE AND FAT-SOLUBLE IMMUNOMODULATOR” (IUCF-HYU (INDUSTRY-UNIVERSITY COOPERATION FOUNDATION …, priority 2022, published 2026)

Columns and labels:
B16F10 melanoma cells [1] = experiment: Wound healing, 2D melanoma cell culture; type: cell-based; conditions: SD208 1 μmol/L, TGF-β 5 ng/m, 24 hours, 2D culture
Description: For 2D cell culture, 8×10^4 B16F10 melanoma cells were cultured in a 12-well plate using DMEM until the wells were full. Thereafter, the cells filling the wells were scratched in a cross shape to create a wound, and treated with the immunoadjuvant SD208 (1 μmol/L) and the tumor marker TGF-β (5 ng/m) for 24 hours, and the wound healing rate over time was imaged using a microscope.

PD-L1 = experiment: Inhibition of PD-L1 protein expression in melanoma cells (confocal, flow cytometry); type: cell-based; conditions: SD208 1 μmol/L, TGF-β 5 ng/m, 24 hours, B16F10 melanoma cells
Description: 5×10^4 B16F10 melanoma cells per well of a cell culture plate were cultured in a 12-well plate using DMEM, and then treated with the immunoadjuvant SD208 (1 μmol/L) and the tumor marker TGF-β (5 ng/m) for 24 hours.
Thereafter, the cells were imaged using a STELLARIS 8 STED confocal laser scanning microscope after treatment with an anti-PD-L1 Alexa 488 fluorescent antibody. In addition, the fluorescence expression level of the PD-L1 protein was confirmed through flow cytometry.

B16F10 melanoma cells [2] = experiment: Melanoma cell spheroid volume, 3D cell culture; type: cell-based; conditions: SD208 1 μmol/L, TGF-β 5 ng/m, eight days, 3D culture
Description: For 3D cell culture, 1,000 B16F10 melanoma cells per 100 μl of DMEM were placed in a PCR tube and collected at the bottom by centrifugation. After culturing the cells in the PCR tubes for three days, they were transferred to a 96-well plate and treated with DMEM containing the immunoadjuvant SD208 (1 μmol/L) and the tumor marker TGF-β (5 ng/m). The DMEM was exchanged with fresh DMEM every three days, and the changes in the size of melanoma cell spheroids were measured for eight days using a microscope.

TGF-β = experiment: Inhibition of TGF-β activity in melanoma cells (immunofluorescence, western blotting); type: cell-based; conditions: SD208 1 μmol/L, TGF-β 5 ng/m, 24 hours, B16F10 melanoma cells
Description: 5×10^4 B16F10 melanoma cells per well of a cell culture plate were cultured in a 12-well plate using Dulbecco's Modified Eagle Medium (DMEM), and then treated with the immunoadjuvant SD208 (1 μmol/L) and the tumor marker TGF-β (5 ng/m) for 24 hours. Thereafter, cells were treated with an anti-α-tubulin Alexa 488 fluorescent antibody and 4′,6-diamidino-2-phenylindole (DAPI), and then imaged using the STELLARIS 8 STED confocal laser scanning microscope.
In addition, changes in the expression levels of proteins activated by TGF-β were confirmed by western blotting using anti-Psmad3, anti-smad3, anti-N-cadherin, and anti-E-cadherin antibodies.

[3] = Confocal imaging of fluorescent substances in composite solvent microstructure; type: physicochemical; conditions: PBS:DMSO 9:1, 20% (w/v) hyaluronic acid
Description: The fluorescein isothiocyanate (FITC) fluorescent substance which is soluble only in a water-soluble solvent, and the Cy5.5 fluorescent substance, which is soluble only in a fat-soluble solvent, were added to a composite solvent containing a mixture of a water-soluble solvent (PBS) and a fat-soluble solvent (DMSO) in a ratio of 9:1 (10% (v/v) fat-soluble) and 20% (w/v) hyaluronic acid was further dissolved, and microstructures were fabricated using the method of Manufacturing Example 1. Thereafter, the composite solvent fluorescence microstructures were imaged using the STELLARIS 8 STED confocal laser scanning microscope.

| distribution within the microstructure [3] | Compound | wound healing effect by TGF-β (B16F10 melanoma cells [1]) | fluorescence value of PD-L1 (PD-L1 expression) (PD-L1) | melanoma cell spheroid volume increase effect caused by TGF-β (B16F10 melanoma cells [2]) | effect of TGF-β (TGF-β) | expression of proteins activated by TGF-β (TGF-β; Psmad3, smad3, N-cadherin, E-cadherin) |
| --- | --- | --- | --- | --- | --- | --- |
|  | Fc1ccc(Cl)cc1-c1nc(Nc2ccncc2)c2nccnc2n1 [SD208] | inhibited | decreased | inhibited | inhibited the effect of TGF-β | suppressing the expression of proteins activated by TGF-β |
| evenly distributed | Cy5.5 |  |  |  |  |  |
